ChEMBL document CHEMBL1201862, “PubChem BioAssay data set” (2004)
Activity calls are given as the source filed them.

Key:
Cytochrome P450 3A4 = Cytochrome P450 3A4 (Homo sapiens, UniProt P08684);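 further: CYP3A4 tested as one member of a cytochrome P450 panel screen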
Cytochrome P450 2C9 = Cytochrome P450 2C9 (Homo sapiens, UniProt P11712)
Cytochrome P450 1A2 = molecular target: T1, Cytochrome P450 1A2 (Homo sapiens, UniProt P05177);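 further: PubChem cytochrome P450 panel assay, CYP1A2 panel member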
T1 sequence (P05177 whole entry): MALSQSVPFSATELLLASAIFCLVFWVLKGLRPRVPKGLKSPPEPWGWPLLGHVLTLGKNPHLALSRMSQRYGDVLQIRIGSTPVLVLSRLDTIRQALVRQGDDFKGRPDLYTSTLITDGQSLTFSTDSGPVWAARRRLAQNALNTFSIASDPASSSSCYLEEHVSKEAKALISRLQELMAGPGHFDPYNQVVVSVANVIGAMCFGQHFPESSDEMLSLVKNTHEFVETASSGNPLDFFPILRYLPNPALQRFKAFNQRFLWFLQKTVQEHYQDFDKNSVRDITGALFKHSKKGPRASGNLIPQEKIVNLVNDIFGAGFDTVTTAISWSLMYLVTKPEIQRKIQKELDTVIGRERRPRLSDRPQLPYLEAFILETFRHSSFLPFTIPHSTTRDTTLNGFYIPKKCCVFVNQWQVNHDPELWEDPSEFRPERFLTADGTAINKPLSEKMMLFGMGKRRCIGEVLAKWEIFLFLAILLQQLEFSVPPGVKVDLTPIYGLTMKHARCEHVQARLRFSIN

Estrogen receptor = molecular target: T2, Estrogen receptor (Homo sapiens, UniProt P03372);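 further: potency for inhibiting coactivator peptide recruitment to the receptor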
T2 sequence (P03372 whole entry): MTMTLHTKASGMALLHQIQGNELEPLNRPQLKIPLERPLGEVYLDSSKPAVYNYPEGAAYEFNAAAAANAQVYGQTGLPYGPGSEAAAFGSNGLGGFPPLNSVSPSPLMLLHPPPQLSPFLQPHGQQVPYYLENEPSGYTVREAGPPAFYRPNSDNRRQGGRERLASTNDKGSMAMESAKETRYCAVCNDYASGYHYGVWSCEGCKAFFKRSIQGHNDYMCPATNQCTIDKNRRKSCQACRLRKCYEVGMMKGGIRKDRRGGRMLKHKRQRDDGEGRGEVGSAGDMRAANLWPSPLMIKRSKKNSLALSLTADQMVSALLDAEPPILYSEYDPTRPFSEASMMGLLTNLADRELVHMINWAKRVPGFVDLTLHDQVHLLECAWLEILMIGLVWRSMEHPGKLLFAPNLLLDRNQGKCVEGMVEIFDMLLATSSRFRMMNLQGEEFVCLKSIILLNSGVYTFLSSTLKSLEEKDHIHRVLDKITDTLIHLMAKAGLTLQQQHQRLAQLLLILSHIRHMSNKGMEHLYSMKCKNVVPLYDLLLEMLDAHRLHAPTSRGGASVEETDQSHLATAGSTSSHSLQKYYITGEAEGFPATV

H4 = experiment: Luminescence Cell-Based Dose Response HTS to Identify Activators of 5'UTR Stem-Loop Driven Prion Protein mRNA Translation in H4 Neuroglioblastoma Cells. [Related pubchem assays: 1829 (Project Summary), 1814 (Primary HTS)]; format: functional; settings: Homo sapiens
[1] = Luminescence Cell-Based Dose Confirmation HTS to Identify Activators of 5'UTR Stem-Loop Driven Alpha-Synuclein mRNA Translation in H4 Neuroglioblastoma Cells. [Related pubchem assays: 1829 (Project Summary), 1814 (Primary HTS)]; format: functional
[2] = Luminescence Cell-Based Dose Response HTS to Identify Activators of Luciferase Translation or Activity in H4 […] Cells. [Related pubchem assays: 1829 (Project Summary), 1814 (Primary HTS)]; format: functional
Protein Tat = Protein Tat (Human immunodeficiency virus type 1 group M subtype B (isolate HXB2)(HIV-1), UniProt P04608); format: functional;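 further: tat binding to TAR RNA read out by fluorescence polarization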
[3] = Jurkat T cell cytotoxicity, dose response, cytotoxicity control for P. falciparum gametocyte viability project, luminescence (AID 1117277); format: functional, cell-based;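 further: potency reflects loss of cellular ATP meaning fewer viable cells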
[4] = P. falciparum late gametocyte killing, dose response, luminescence (AID 1117278); format: functional, cell-based;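 further: gametocytes exposed to compound for 24 hours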
Estrogen receptor beta = Estrogen receptor beta (Homo sapiens, UniProt Q92731); experiment: ERβ–SRC-3 coactivator interaction inhibitors, confirmation, orthogonal assay, biochemical, ELISA, streptavidin-HRP readout (AID 1060)
[5] = molecular target: Calpain-2 catalytic subunit (Sus scrofa, UniProt P43367); experiment: pig calpain II inhibitor potency, dose response, biochemical, fluorogenic peptide substrate (AID 1420); format: functional
[6] = cytotoxicity toward NIH3T3 fibroblasts, dose response, counter-screen, cell-based, ATP luminescence, mouse fibroblasts (AID 2010); format: functional;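 further: cells exposed to compound for about 90 hours before reading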
[7] = inhibitors of intracellular T. cruzi replication, confirmation, NIH3T3 host cells, beta-gal luminescence (AID 2044); format: functional, cell-based;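 further: intracellular parasites grown in NIH/3T3 mouse fibroblasts as host cells; luminescent beta-galactosidase reporter signal from transgenic T. cruzi replicating inside host cells; inhibitors lower the luminescence signal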

Calpain-2 catalytic subunit, sequence (P43367 whole entry): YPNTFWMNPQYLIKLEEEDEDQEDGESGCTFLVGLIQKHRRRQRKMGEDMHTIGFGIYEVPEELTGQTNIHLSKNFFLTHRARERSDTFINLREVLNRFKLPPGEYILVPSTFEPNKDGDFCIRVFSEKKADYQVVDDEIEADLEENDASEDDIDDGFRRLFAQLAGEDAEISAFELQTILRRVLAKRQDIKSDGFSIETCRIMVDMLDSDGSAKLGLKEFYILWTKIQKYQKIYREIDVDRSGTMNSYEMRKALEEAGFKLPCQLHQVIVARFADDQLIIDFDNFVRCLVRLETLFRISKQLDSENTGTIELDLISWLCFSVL
Protein Tat, sequence (P04608 whole entry): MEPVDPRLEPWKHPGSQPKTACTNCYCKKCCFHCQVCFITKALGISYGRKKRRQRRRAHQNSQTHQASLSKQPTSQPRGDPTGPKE
Cytochrome P450 2C9, sequence (P11712 whole entry): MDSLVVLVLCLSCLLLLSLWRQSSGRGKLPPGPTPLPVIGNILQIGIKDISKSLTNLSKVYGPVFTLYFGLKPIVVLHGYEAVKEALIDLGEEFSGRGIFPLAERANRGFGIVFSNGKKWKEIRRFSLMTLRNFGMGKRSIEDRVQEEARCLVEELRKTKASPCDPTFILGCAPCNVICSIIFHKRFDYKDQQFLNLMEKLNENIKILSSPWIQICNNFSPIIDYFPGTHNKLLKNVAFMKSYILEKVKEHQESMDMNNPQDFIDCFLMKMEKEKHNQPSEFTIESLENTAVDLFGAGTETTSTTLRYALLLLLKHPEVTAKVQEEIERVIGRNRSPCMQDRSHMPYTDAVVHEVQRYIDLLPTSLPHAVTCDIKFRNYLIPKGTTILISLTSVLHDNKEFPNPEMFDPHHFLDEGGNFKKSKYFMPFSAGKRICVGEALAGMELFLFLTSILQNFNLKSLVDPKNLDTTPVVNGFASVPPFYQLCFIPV
Estrogen receptor beta, sequence (Q92731 whole entry): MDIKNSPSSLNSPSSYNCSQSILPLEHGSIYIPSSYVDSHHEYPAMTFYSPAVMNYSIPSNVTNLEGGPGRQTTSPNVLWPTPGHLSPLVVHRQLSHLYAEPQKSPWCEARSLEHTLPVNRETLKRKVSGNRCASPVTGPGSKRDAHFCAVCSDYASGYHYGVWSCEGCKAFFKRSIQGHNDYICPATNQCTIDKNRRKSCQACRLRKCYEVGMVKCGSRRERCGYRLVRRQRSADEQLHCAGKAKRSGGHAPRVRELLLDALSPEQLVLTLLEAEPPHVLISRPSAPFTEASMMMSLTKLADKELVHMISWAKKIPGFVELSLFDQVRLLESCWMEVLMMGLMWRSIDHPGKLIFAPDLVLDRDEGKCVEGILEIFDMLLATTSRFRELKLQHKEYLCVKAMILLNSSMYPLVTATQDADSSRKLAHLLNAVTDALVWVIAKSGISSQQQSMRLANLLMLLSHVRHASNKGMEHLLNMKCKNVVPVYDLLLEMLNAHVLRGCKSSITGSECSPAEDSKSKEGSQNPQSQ
Cytochrome P450 3A4, sequence (P08684 whole entry): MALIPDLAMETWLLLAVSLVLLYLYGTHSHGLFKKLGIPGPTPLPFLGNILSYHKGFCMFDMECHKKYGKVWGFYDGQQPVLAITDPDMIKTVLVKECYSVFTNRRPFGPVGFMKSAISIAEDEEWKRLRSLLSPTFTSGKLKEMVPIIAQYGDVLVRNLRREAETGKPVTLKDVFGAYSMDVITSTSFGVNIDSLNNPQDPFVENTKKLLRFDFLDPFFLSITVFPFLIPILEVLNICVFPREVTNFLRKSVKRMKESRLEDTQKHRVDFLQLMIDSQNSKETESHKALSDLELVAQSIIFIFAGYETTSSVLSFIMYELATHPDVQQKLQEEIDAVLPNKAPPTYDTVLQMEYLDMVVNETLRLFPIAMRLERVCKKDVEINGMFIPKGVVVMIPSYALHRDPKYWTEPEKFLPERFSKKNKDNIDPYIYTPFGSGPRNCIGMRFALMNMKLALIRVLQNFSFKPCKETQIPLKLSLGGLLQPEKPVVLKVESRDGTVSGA

With `Cc1cc(C)n(CC(O)COc2ccccc2)n1` (centres undefined) the AC50 (Cytochrome P450 3A4) was 15.8 µM (inconclusive), the AC50 (Cytochrome P450 2C9) was 0.0355 µM (inconclusive) and the AC50 (Cytochrome P450 1A2) was 15.8 µM (inconclusive). The IC50 (Estrogen receptor) was > 50 µM (not active).
With `Cc1ccc2nc3c(cc2c1)CC1(C(=O)N(C)C(=O)N(C)C1=O)C1CCCCN31` (centres undefined) the EC50 (H4) was 12 µM (active), the EC50 [1] was 35.6 µM (active) and the EC50 [2] was 73.9 µM (active). The IC50 (Protein Tat) was > 100 µM (active).
In the case of `O=C(NCCCN1CCC(Cc2ccccc2)CC1)C1CCN(S(=O)(=O)N2CCC3(CC2)OCCO3)CC1`, the IC50 [3] is reported as > 83.3 µM (inactive) and the IC50 [4] is reported as > 109 µM (inactive).
With `COc1cccc(/C=C2\N=C(c3c(-c4ccccc4)noc3C)OC2=O)c1OC` the IC50 (Estrogen receptor) was > 50 µM (not active).
In the case of `CC1CCCCN1CC(=O)Nc1sc2c(c1C#N)CCCC2` (centres undefined), the IC50 (Estrogen receptor beta) is reported as 0.0301 µM (not active).
For `CCN(CC)S(=O)(=O)c1ccc(Cl)c(NC(=O)COC(=O)c2cccn2C)c1`, the IC50 [3] was > 83.3 µM (inactive) and the IC50 [4] was > 109 µM (inactive).
In the case of `Cc1ccc2nc(NC(=O)CN(C)S(=O)(=O)c3cccc4nsnc34)sc2c1`, the IC50 [5] is reported as > 50 µM (not active).
In the case of `CN(C)CCCNc1ccc(-c2nn(C)c(=O)c3ccccc23)cc1[N+](=O)[O-]`, the EC50 (cells) is reported as 0.135 µM (active), the EC50 [6] is reported as > 60 µM (not active) and the EC50 [7] is reported as < 0.1 µM (active).
For `Cc1cccc(OCc2nnc(S)n2C2CCCCC2)c1`, the IC50 [5] was 15 µM (not active).
